Reference: US7282504B2, “Kinase inhibitors” (Amgen Inc., priority 2000, dated 2007)

Assays:
Type in all cases: biochemical
Fyn-1 = target: T1, Fyn-1 (Homo sapiens, UniProt P06241); test: Kinase inhibition, 33P transfer to plate-bound substrate: Fyn-1
T1 construct: Kinases are expressed as either kinase domains or full-length constructs; made in house
Text: (§1) The inhibitor compounds described herein are screened in the following manner. Kinases suitable for use in the following protocol to determine kinase activity of the compounds described herein include, but are not limited to: Lck, Lyn, Src, Fyn, Syk, Zap-70, Itk, Tec, Btk, EGFR, ErbB2, Kdr, Flt-1, Flt-3, Tek, c-Met, InsR, and AKT.
(§2) Kinases are expressed as either kinase domains or full-length constructs fused to glutathione S-transferase (GST) or polyHistidine tagged fusion proteins in either E. coli or Baculovirus-High Five expression systems. They are purified to near homogeneity by affinity chromatography essentially as previously described (Lehr et al., 1996; Gish et al., 1995). In some instances, kinases are co-expressed or mixed with purified or partially purified regulatory polypeptides prior to measurement of activity.
(§3) Kinase activity and inhibition are measured essentially by established protocols (Braunwalder et al., 1996). Briefly, The transfer of ^33PO4 from ATP to the synthetic substrates poly(Glu, Tyr) 4:1 or poly(Arg, Ser) 3:1 attached to the bioactive surface of microtiter plates serves as the basis to evaluate enzyme activity. After an incubation period, the amount of phosphate transferred is measured by first washing the plate with 0.5% phosphoric acid, adding liquid scintillant, and then counting in a liquid scintillation detector. The IC50 is determined by the concentration of compound that causes a 50% reduction in the amount of ^33P incorporated onto the substrate bound to the plate.

Lck-2 = target: T2, Lck-2 (Homo sapiens, UniProt P06239); test: Kinase inhibition, 33P transfer to plate-bound substrate: Lck-2
T2 construct: Kinases are expressed as either kinase domains or full-length constructs; made in house
T2 sequence (P06239 whole entry, the tested form may be a part): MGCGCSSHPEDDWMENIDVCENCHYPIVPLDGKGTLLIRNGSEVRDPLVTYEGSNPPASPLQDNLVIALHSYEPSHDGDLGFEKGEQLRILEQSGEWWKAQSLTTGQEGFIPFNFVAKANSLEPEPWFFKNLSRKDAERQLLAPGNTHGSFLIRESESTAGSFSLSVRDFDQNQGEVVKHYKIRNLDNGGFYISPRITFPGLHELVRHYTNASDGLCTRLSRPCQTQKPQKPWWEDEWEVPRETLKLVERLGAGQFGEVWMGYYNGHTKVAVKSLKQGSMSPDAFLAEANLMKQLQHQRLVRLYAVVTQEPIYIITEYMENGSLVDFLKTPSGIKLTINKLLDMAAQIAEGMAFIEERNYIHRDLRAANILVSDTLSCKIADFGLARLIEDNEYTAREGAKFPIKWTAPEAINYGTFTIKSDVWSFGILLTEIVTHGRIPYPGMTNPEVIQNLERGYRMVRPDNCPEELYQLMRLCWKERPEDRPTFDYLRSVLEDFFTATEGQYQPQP
Text: as §1, §2, §3

Flt1-1 = target: T3, Flt1-1 (Homo sapiens, UniProt P17948); test: Kinase inhibition, 33P transfer to plate-bound substrate: Flt1-1
T3 construct: Kinases are expressed as either kinase domains or full-length constructs; made in house
Text: as §1, §2, §3

Itk-1 = target: T4, Itk-1 (Homo sapiens, UniProt Q08881); test: Kinase inhibition, 33P transfer to plate-bound substrate: Itk-1
T4 construct: Kinases are expressed as either kinase domains or full-length constructs; made in house
T4 sequence (Q08881 1-620): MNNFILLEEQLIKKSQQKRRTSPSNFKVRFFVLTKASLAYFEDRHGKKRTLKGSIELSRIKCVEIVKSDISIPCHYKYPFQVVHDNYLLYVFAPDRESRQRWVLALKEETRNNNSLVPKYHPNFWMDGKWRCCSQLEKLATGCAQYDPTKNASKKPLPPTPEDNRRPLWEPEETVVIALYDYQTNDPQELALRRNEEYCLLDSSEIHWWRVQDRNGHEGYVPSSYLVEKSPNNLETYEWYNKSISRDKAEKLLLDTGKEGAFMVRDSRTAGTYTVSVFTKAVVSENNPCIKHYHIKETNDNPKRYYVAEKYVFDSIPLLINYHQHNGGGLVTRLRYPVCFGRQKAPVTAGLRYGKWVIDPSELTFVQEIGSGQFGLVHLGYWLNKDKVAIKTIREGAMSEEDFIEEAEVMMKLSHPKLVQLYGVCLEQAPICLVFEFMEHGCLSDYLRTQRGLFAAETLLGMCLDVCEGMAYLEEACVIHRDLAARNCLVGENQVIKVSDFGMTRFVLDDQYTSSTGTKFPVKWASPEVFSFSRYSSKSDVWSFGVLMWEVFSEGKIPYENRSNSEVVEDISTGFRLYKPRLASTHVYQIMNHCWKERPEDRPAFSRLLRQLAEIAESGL
Text: as §1, §2, §3

FGFR1-1 = target: T5, FGFR1-1 (Homo sapiens, UniProt P11362); test: Kinase inhibition, 33P transfer to plate-bound substrate: FGFR1-1
T5 construct: Kinases are expressed as either kinase domains or full-length constructs; made in house
Text: as §1, §2, §3

Tek-1 = target: T6, Tek-1 (Homo sapiens, UniProt Q02763); test: Kinase inhibition, 33P transfer to plate-bound substrate: Tek-1
T6 construct: Kinases are expressed as either kinase domains or full-length constructs; made in house
Text: as §1, §2, §3

Hck-1 = target: T7, Hck-1 (Homo sapiens, UniProt P08631); test: Kinase inhibition, 33P transfer to plate-bound substrate: Hck-1
T7 construct: Kinases are expressed as either kinase domains or full-length constructs; made in house
Text: as §1, §2
as §3, with “The IC50 is determined by the concentration of compound that causes a 50% reduction in the amount of ^33P incorporated onto the substrate bound to the plate.” left out

Met-1 = target: T8, Met-1 (Homo sapiens, UniProt P08581); test: Kinase inhibition, 33P transfer to plate-bound substrate: Met-1
T8 construct: Kinases are expressed as either kinase domains or full-length constructs; made in house
Text: as §1, §2, §3

Akt3-1 = target: T9, Akt3-1 (Homo sapiens, UniProt Q9Y243); test: Kinase inhibition, 33P transfer to plate-bound substrate: Akt3-1
T9 construct: Kinases are expressed as either kinase domains or full-length constructs; made in house
Text: as §1, §2, §3

EGFR-1 = target: T10, EGFR-1 (Homo sapiens, UniProt P00533); test: Kinase inhibition, 33P transfer to plate-bound substrate: EGFR-1
T10 construct: Kinases are expressed as either kinase domains or full-length constructs; made in house
T10 sequence (P00533 25-1210): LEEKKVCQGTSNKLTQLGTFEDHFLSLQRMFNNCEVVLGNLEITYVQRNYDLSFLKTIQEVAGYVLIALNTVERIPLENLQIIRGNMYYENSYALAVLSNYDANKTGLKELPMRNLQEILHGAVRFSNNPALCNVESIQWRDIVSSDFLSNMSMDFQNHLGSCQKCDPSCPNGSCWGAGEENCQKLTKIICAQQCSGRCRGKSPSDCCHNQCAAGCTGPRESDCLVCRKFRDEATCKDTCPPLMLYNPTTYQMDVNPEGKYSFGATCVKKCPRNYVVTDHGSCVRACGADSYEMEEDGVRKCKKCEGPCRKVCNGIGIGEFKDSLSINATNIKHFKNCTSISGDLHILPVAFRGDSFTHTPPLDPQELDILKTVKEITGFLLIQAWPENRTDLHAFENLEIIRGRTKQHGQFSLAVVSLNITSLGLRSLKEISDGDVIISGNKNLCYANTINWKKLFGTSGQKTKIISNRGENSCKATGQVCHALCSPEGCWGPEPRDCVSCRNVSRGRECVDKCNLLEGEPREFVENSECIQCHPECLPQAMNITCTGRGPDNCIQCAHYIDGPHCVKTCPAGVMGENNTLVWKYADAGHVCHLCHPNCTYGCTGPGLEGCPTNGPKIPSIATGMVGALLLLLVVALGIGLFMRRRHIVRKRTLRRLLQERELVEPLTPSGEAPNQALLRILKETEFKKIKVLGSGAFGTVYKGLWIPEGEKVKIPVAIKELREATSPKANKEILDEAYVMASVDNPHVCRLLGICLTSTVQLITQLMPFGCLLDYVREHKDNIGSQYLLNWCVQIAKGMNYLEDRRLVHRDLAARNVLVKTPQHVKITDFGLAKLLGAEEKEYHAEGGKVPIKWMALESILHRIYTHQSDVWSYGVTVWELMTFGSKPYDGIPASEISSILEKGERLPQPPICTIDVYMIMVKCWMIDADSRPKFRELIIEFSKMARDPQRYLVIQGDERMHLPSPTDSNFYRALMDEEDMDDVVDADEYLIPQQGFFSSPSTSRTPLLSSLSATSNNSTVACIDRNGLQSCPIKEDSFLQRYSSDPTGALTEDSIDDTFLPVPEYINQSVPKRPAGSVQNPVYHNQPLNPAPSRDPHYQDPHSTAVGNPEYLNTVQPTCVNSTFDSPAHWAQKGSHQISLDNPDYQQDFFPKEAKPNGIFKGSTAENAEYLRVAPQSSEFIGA
Text: as §1, §2, §3

Zap-1 = target: T11, Zap-1 (Homo sapiens, UniProt P43403); test: Kinase inhibition, 33P transfer to plate-bound substrate: Zap-1
T11 construct: Kinases are expressed as either kinase domains or full-length constructs; made in house
T11 sequence (P43403 1-619): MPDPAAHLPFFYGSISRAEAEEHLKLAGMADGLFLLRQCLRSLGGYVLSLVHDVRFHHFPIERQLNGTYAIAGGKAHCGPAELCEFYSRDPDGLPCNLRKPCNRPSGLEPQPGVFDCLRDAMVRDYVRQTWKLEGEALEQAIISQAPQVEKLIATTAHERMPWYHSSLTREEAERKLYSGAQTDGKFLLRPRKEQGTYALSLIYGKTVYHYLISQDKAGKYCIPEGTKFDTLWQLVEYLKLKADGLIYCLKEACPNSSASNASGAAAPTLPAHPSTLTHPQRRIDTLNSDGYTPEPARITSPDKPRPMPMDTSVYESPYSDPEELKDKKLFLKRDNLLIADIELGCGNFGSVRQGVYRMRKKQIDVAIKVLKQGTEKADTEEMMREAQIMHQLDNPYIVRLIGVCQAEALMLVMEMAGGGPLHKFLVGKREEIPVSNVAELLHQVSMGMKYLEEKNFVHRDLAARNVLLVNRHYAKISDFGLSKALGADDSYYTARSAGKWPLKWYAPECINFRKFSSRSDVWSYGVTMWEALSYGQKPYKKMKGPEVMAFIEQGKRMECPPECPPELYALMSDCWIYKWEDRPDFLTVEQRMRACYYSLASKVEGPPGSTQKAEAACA
Text: as §1, §2, §3

Lyn-1 = target: T12, Lyn-1 (Homo sapiens, UniProt P07948); test: Kinase inhibition, 33P transfer to plate-bound substrate: Lyn-1
T12 construct: Kinases are expressed as either kinase domains or full-length constructs; made in house
Text: as §1, §2, §3

ErbB4-1 = target: T13, ErbB4-1 (Homo sapiens, UniProt Q15303); test: Kinase inhibition, 33P transfer to plate-bound substrate: ErbB4-1
T13 construct: Kinases are expressed as either kinase domains or full-length constructs; made in house
Text: as §1, §2, §3

Lck-1 = target: T14, Lck-1 (Homo sapiens, UniProt P06239); test: Kinase inhibition, 33P transfer to plate-bound substrate: Lck-1
T14 construct: Kinases are expressed as either kinase domains or full-length constructs; made in house
T14 sequence (P06239 whole entry, the tested form may be a part): as the sequence (P06239 whole entry, the tested form may be a part) above
Text: as §1, §2, §3

Src-1 = target: T15, Src-1 (Homo sapiens, UniProt P12931); test: Kinase inhibition, 33P transfer to plate-bound substrate: Src-1
T15 construct: Kinases are expressed as either kinase domains or full-length constructs; made in house
T15 sequence (P12931 whole entry, the tested form may be a part): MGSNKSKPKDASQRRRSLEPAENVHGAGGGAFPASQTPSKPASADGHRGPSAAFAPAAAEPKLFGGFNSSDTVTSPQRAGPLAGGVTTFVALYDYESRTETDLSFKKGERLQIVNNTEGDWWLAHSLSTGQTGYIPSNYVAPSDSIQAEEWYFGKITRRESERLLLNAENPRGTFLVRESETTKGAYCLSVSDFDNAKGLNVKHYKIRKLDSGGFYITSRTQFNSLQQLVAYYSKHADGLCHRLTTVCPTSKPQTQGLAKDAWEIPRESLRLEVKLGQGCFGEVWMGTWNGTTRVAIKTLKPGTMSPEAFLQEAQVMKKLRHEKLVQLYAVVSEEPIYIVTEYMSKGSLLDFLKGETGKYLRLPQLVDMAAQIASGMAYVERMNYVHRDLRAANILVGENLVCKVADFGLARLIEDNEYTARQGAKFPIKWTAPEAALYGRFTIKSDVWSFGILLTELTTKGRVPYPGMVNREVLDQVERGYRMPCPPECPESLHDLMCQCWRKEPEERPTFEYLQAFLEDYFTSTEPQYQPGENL
Text: as §1, §2, §3

KDR-1 = target: T16, KDR-1 (Homo sapiens, UniProt P35968); test: Kinase inhibition, 33P transfer to plate-bound substrate: KDR-1
T16 construct: Kinases are expressed as either kinase domains or full-length constructs; made in house
Text: as §1, §2, §3

PDGFRB = target: T17, PDGFRB (Homo sapiens, UniProt P09619); test: Kinase inhibition, 33P transfer to plate-bound substrate: PDGFRB
T17 construct: Kinases are expressed as either kinase domains or full-length constructs; made in house
T17 sequence (P09619 33-1106, species assumed): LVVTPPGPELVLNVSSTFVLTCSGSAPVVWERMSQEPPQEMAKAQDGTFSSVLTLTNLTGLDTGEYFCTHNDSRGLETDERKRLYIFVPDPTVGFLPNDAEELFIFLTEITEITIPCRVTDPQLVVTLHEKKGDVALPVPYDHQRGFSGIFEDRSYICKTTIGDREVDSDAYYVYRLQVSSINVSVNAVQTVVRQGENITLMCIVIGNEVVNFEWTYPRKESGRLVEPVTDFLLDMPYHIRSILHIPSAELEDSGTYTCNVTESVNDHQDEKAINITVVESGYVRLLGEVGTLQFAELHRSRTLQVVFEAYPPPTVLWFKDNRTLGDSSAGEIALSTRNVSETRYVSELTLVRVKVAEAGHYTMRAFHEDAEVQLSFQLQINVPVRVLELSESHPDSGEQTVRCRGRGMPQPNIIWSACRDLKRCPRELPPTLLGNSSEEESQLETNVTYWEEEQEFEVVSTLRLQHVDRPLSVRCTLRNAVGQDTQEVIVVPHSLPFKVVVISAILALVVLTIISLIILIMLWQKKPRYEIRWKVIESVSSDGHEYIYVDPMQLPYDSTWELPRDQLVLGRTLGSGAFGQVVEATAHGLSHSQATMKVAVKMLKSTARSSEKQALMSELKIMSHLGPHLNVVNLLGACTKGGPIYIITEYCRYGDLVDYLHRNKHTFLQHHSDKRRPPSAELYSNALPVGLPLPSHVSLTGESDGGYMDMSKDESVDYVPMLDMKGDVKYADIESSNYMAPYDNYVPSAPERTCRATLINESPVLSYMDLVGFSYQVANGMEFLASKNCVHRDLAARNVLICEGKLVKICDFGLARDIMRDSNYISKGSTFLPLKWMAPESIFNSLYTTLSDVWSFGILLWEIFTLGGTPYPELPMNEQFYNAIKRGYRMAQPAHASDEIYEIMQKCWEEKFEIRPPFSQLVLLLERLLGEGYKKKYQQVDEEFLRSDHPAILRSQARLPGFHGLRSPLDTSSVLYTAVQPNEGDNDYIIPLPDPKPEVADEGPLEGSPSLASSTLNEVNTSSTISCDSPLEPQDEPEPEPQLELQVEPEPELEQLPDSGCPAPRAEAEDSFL
Text: as §1, §2, §3

ErbB2-1 = target: T18, ErbB2-1 (Homo sapiens, UniProt P04626); test: Kinase inhibition, 33P transfer to plate-bound substrate: ErbB2-1
T18 construct: Kinases are expressed as either kinase domains or full-length constructs; made in house
Text: as §1, §2, §3

IGFR-1 = target: T19, IGFR-1 (Homo sapiens, UniProt P08069); test: Kinase inhibition, 33P transfer to plate-bound substrate: IGFR-1
T19 construct: Kinases are expressed as either kinase domains or full-length constructs; made in house
Text: as §1, §2, §3

Ret-1 = target: T20, Ret-1 (Homo sapiens, UniProt P07949); test: Kinase inhibition, 33P transfer to plate-bound substrate: Ret-1
T20 construct: Kinases are expressed as either kinase domains or full-length constructs; made in house
T20 sequence (P07949 29-1114): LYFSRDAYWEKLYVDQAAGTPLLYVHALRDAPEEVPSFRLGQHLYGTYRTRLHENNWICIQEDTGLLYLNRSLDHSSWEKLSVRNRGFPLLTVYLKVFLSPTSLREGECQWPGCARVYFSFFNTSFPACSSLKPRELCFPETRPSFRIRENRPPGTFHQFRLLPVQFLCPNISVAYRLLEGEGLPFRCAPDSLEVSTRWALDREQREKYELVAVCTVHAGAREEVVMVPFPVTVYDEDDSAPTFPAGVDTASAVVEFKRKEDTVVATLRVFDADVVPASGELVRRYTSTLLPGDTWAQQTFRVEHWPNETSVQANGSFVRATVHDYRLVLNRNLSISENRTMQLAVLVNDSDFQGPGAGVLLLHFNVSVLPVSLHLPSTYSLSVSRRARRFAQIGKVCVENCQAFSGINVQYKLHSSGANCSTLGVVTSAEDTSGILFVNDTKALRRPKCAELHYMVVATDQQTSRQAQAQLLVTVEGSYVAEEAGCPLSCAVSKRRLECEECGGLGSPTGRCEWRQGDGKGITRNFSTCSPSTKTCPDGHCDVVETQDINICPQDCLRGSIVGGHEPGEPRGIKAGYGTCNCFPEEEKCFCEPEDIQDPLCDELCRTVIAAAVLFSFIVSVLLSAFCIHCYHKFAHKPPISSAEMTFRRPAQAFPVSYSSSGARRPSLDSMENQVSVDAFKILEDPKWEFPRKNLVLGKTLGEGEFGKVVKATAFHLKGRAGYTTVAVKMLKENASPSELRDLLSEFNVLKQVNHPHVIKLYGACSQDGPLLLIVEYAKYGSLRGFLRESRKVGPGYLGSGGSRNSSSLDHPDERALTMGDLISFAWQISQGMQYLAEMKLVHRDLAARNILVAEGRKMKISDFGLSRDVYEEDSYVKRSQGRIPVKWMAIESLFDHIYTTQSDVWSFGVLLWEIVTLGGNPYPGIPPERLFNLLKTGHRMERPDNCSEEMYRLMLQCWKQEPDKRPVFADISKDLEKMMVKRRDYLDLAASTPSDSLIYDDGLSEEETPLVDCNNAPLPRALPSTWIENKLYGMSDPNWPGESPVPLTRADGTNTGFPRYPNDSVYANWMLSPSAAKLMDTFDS
Text: as §1, §2, §3

InsR-1 = target: T21, InsR-1 (Homo sapiens, UniProt P06213); test: Kinase inhibition, 33P transfer to plate-bound substrate: InsR-1
T21 construct: Kinases are expressed as either kinase domains or full-length constructs; made in house
Text: as §1, §2, §3

T1 sequence (P06241 whole entry, the tested form may be a part): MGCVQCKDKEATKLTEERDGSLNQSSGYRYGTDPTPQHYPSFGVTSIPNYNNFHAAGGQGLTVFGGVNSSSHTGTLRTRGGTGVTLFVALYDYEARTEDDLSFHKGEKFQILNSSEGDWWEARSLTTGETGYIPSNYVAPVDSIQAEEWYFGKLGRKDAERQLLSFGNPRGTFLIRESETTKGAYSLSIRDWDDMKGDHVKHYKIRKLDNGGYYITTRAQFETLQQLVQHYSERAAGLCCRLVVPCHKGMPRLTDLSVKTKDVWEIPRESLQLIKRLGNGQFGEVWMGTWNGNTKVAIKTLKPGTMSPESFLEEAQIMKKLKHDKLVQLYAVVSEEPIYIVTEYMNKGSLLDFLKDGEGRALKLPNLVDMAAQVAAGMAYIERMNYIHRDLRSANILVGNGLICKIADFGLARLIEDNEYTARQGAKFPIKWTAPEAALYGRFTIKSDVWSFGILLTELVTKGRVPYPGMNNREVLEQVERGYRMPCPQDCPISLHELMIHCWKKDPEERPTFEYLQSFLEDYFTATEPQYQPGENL

SMILES	IC50 (Fyn-1) [µM]	IC50 (Lck-2) [µM]	IC50 (Flt1-1) [µM]	IC50 (Itk-1) [µM]	IC50 (FGFR1-1) [µM]	IC50 (Met-1) [µM]	IC50 (Akt3-1) [µM]	IC50 (EGFR-1) [µM]	IC50 (Zap-1) [µM]	IC50 (Lck-1) [µM]	IC50 (Src-1) [µM]	IC50 (KDR-1) [µM]	IC50 (PDGFRB) [µM]	IC50 (ErbB2-1) [µM]	IC50 (IGFR-1) [µM]	IC50 (Ret-1) [µM]	IC50 (InsR-1) [µM]	other results
COc1cc(Nc2nccc(-n3ccc4ccccc43)n2)cc(OC)c1OC [Compound 31]	< 1.5	< 1.5	< 1.5	1.5 to 5	< 1.5	1.5 to 5	≥ 10	≥ 10	≥ 10	< 1.5	< 1.5	< 1.5	< 1.5	–	–	–	–	IC50 (Tek-1): 5 to 10 µM; IC50 (Hck-1): ≥ 10 µM; IC50 (Lyn-1): < 1.5 µM; IC50 (ErbB4-1): 1.5 to 5 µM
Cc1cccc(Nc2nccc(Nc3cccc(Br)c3)n2)c1 [Compound 54]	–	≥ 10	–	≥ 10	–	≥ 10	≥ 10	≥ 10	–	≥ 10	–	5 to 10	5 to 10	≥ 10	< 1.5	–	–	–
COc1ccc(Nc2ccnc(Nc3ccc(OC)c(OC)c3)n2)cc1OC [Compound 56]	5 to 10	< 1.5	1.5 to 5	≥ 10	1.5 to 5	≥ 10	≥ 10	≥ 10	≥ 10	5 to 10	1.5 to 5	< 1.5	< 1.5	≥ 10	< 1.5	1.5 to 5	≥ 10	–
COc1cc(Nc2nccc(Nc3cc(C(C)(C)C)n[nH]3)n2)cc(OC)c1OC [Compound 35]	1.5 to 5	< 1.5	5 to 10	1.5 to 5	5 to 10	< 1.5	≥ 10	5 to 10	≥ 10	< 1.5	< 1.5	1.5 to 5	1.5 to 5	≥ 10	< 1.5	1.5 to 5	< 1.5	IC50 (Lyn-1): < 1.5 µM; IC50 (ErbB4-1): 5 to 10 µM
COc1cc(Nc2ccnc(Nc3ccc4c(cnn4Cc4ccccc4)c3)n2)cc(OC)c1OC [Compound 37]	–	< 1.5	–	1.5 to 5	–	1.5 to 5	≥ 10	1.5 to 5	≥ 10	< 1.5	–	1.5 to 5	< 1.5	< 1.5	< 1.5	–	–	–

More lines, main results first:

IC50 (Fyn-1) [µM]	IC50 (Lck-2) [µM]	IC50 (Flt1-1) [µM]	IC50 (Itk-1) [µM]	IC50 (FGFR1-1) [µM]	IC50 (Met-1) [µM]	IC50 (Akt3-1) [µM]	IC50 (EGFR-1) [µM]	IC50 (Zap-1) [µM]	IC50 (Lck-1) [µM]	IC50 (Src-1) [µM]	IC50 (KDR-1) [µM]	IC50 (PDGFRB) [µM]	IC50 (ErbB2-1) [µM]	IC50 (IGFR-1) [µM]	IC50 (Ret-1) [µM]	IC50 (InsR-1) [µM]	SMILES	other results
–	< 1.5	–	5 to 10	–	5 to 10	–	5 to 10	–	5 to 10	–	5 to 10	–	–	–	–	–	COc1cc(Nc2ccnc(Nc3ccc(Oc4ccccc4)cc3)n2)cc(OC)c1OC [Compound 59]	–
–	< 1.5	5 to 10	5 to 10	5 to 10	1.5 to 5	≥ 10	≥ 10	≥ 10	≥ 10	–	< 1.5	5 to 10	≥ 10	< 1.5	< 1.5	5 to 10	Clc1cccc(Nc2ccnc(Nc3cccc(Cl)c3)n2)c1 [Compound 57]	–
–	< 1.5	–	1.5 to 5	–	5 to 10	≥ 10	≥ 10	–	≥ 10	–	1.5 to 5	1.5 to 5	–	< 1.5	–	–	Cc1cccc(Nc2ccnc(Nc3cccc(Br)c3)n2)c1 [Compound 60]	–
